Consider 10 compounds from US4567175A, “8-Chloro-1,5-benzothiazepine derivatives” (Tanabe Seiyaku Co., Ltd., priority 1983, dated 1986).

One may read the LD50 as the dose at which mortality reaches 50%.

Data set [1] has as its system spontaneously hypertensive rats (SHR). In words: Hypotensive activity, oral administration to SHR, systolic blood pressure by tail plethysmography (Experiment 1). Conditions: 30 mg/kg oral. In kind it is in vivo. How it is done:
A test compound (dose: 30 mg/kg) dissolved or suspended in water was administered orally to spontaneously hypertensive rats (SHR) (one group: 3 rats) fasted overnight. The systolic blood pressure of the rats was measured by the tail plethysmographic technique (The Journal of Laboratory and Clinical Medicine 78(1971), page 957). The hypotensive activity of the test compound was estimated at one or 4 hours after dosing and expressed as "-" if the decrease in blood pressure is less than 10 mm Hg; "+" if the decrease is not less than 10 mm Hg but less than 20 mm Hg; "++" if the decrease is not less than 20 mm Hg but less than 40 mm Hg; "+++" if the decrease is not less than 40 mm Hg but less than 60 mm Hg; or "++++" if the decrease is not less than 60 mm Hg.

Data set [2] relates to isolated heart of guinea pig. In words: Coronary vasodilating activity: Langendorff's method, coronary blood flow of isolated guinea pig heart (Experiment 4). Conditions: for Coronary vasodilating activity (increase in coronary blood flow): isolated guinea pig heart, Langendorff, 30° C. How it is done:
Langendorff's method was used for testing the effect on the coronary blood flow of the isolated heart of guinea pig (about 280 g). The isolated heart was perfused with Locke-Ringer solution containing 2% of defibrinated rabbit blood, which had been saturated with a mixed gas of 95% O2 and 5% CO2 (30° C.). Perfusion pressure was kept at 40 cm H2 O. A solution of a test compound in an aqueous 5% glucose solution was injected into the perfusing solution at a volume of 0.1 ml per heart. The overflow of the perfusate was measured by means of a drop counter.
The coronary vasodilating activity of the test compound was expressed as "±" if the increase in coronary blood flow is less than 0.5 ml/minute at a dose of 100 μg/heart; "+" if the increase is not less than 0.5 ml/minute at a dose of 100 μg/heart; "++" if the increase is not less than 0.5 ml/minute at a dose of 30 μg/heart; and "+++" if the increase is not less than 0.5 ml/minute at a dose of not more than 10 μg/heart.

Data set [3] concerns platelet aggregation. In words: Platelet aggregation-inhibiting activity, collagen-induced aggregation in rat platelet-rich plasma, Born's method (Experiment 5). On the set-up: key: -: less than 10% inhibition of platelet aggregation; +: not less than 10% inhibition of platelet aggregation but said percentage inhibition was lower than that of acetylsalicylic acid (100 μg/ml); ++: platelet aggregation-inhibiting activity at least as strong as that of acetylsalicylic acid (100 μg/ml). In kind it is cell-based, male Sprague-Dawley rats. Conditions: final concentration 100 μg/ml, rat PRP, 37° C. An excerpt: Blood was collected from the abdominal aorta of male Sprague-Dawley rats which were anesthetized with ether. Nine volumes of rat blood were mixed with one volume of an aqueous trisodium citrate solution, and the mixture was centrifuged to give platelet-rich plasma ("PRP") as the supernatant solution. The bottom layer was further centrifuged to give platelet-poor plasma ("PPP") as the supernatant solution. Platelet counts were adjusted to 0.8-1×10^6 /mm^3 for PRP by dilution with PPP. After a mixture of 200 μl of the diluted PRP and 25 μl of a test compound solution (final concentration: 100 μg/ml) was stirred for 2 minutes at 37° C., 25 μl of a collagen solution [Biochim. Biophys. Acta, 186, page 254(1969)] were added thereto. The degree of platelet aggregation was estimated by Born's method [Nature, 194, page 927(1962)] and the percentage inhibition of platelet aggregation was calculated therefrom.

Data set [4] has as its system vertebral artery. In words: Cerebral vasodilating activity: vertebral artery blood flow in anesthetized dogs, intraarterial injection, potency ratio to papaverine (Experiment 2). It counts as in vivo. The following applies: for Cerebral vasodilating activity (potency ratio): injected into vertebral artery, potency ratio to papaverine from dose-response curves; for increase in vertebral artery blood flow (in words) / cerebral vasodilating activity, times stronger than the 7-chloro derivative: intraarterial; for cerebral vasodilating activity, times stronger than the 7-chloro derivative: versus (+)-cis-...-7-chloro-... hydrochloride (so in the source). The protocol: On the other hand, when the coronary vasodilating activity is estimated by the Langendorff method using isolated hearts of guinea pigs, said activity of (+)-cis-2-(4-methoxyphenyl)-3-acetoxy-5-[2-(dimethylamino)ethyl]-8-chloro- 2,3-dihydro-1,5-benzothiazepin-4(5H)-one hydrochloride is about 10 times stronger than that of papaverine.
Male dogs weighing 10 to 20 kg were anesthetized with sodium pentobarbital (30 mg/kg, intravenous injection). The blood flow in vertebral artery was measured continuously by means of an electromagnetic flowmeter under artificial respiration. A test compound dissolved in an aqueous 5% glucose solution was injected into vertebral artery. The cerebral vasodilating activity of the test compound was estimated in terms of the potency ratio of said compound to papaverine, which was calculated from the dose-response curves thereof.

The subject of data set [5] is vertebral artery. In words: Cerebral vasodilating activity: increase in vertebral artery blood flow in anesthetized dogs after femoral vein injection (Experiment 3). The following applies: 200 μg/kg into femoral vein. It counts as in vivo. How it is done: Male dogs weighing about 20-24 kg (one group: 2 dogs) were anesthetized with sodium pentobarbital (35 mg/kg, intravenous injection). The blood flow in vertebral artery was measured by means of an electromagnetic flowmeter under artificial respiration. A test compound (i.e., (+)-cis-2-(4-methoxyphenyl)-3-acetoxy-5-[2-(dimethylamino)ethyl]-8-chloro- 2,3-dihydro-1,5-benzothiazepin-4(5H)-one hydrochloride) in a physiological saline solution was injected into the femoral vein at a dose of 200 μg/kg. The cerebral vasodilating activity of the test compound was estimated in terms of "increase (Δml/minute) in vertebral artery blood flow" which was calculated by subtracting "the blood flow measured immediately before injection of test compound" from "the blood flow measured at a period of time after injection of test compound".

Data set [6] in a line: Acute toxicity (LD50), oral administration to mice. Conditions: mouse, in vivo. The protocol:
For example, the acute toxicity (LD50) of (+)-cis-2-(4-methoxyphenyl)-3-acetoxy-5-[2-(dimethylamino)ethyl]-8-chloro- 2,3-dihydro-1,5-benzothiazepin-4(5H)-one hydrochloride when orally administered to mice is more than 1000 mg/kg.

Regarding `CCN(C)CCN1C(=O)[C@H](OC(C)=O)[C@H](c2ccc(OC)cc2)Sc2cc(Cl)ccc21.Cl` (racemic) [(±)-cis-2-(4-methoxyphenyl)-3-acetoxy-5-[2-(N-methyl-N-ethylamino)ethyl]-8-chloro-2,3-dihydro-1,5-benzothiazepin-4(5H)-one hydrochloride], in data set [1], the “Hypotensive activity (decrease in blood pressure), 1 hr after dosing” value is listed as “+++ (decrease is not less than 40 mm Hg but less than 60 mm Hg)” and the “Hypotensive activity (decrease in blood pressure), 4 hrs after dosing” value is listed as “+++ (decrease is not less than 40 mm Hg but less than 60 mm Hg)”.

As for `CCCN(C)CCN1C(=O)[C@H](OC(C)=O)[C@H](c2ccc(OC)cc2)Sc2cc(Cl)ccc21.O=C(O)C(=O)O` (racemic) [(±)-cis-2-(4-methoxyphenyl)-3-acetoxy-5-[2-(N-methyl-N-n-propylamino)ethyl]-8-chloro-2,3-dihydro-1,5-benzothiazepin-4(5H)-one oxalate], the “Coronary vasodilating activity (increase in coronary blood flow)” value in data set [2] is “+++ (increase is not less than 0.5 ml/minute at a dose of not more than 10 μg/heart)”. In addition, in data set [3], the Platelet aggregation-inhibiting activity result was “++”.

For `COc1ccc([C@@H]2Sc3ccc(Cl)cc3N(CCN(C)C)C(=O)[C@@H]2OC(C)=O)cc1.Cl` (racemic) [(±)-cis-2-(4-methoxyphenyl)-3-acetoxy-5-[2-(dimethylamino)ethyl]-7-chloro-2,3-dihydro-1,5-benzothiazepin-4(5H)-one hydrochloride, reference compound], in data set [1], the “Hypotensive activity (decrease in blood pressure), 1 hr after dosing” value is on record as “- (decrease in blood pressure is less than 10 mm Hg)” and the “Hypotensive activity (decrease in blood pressure), 4 hrs after dosing” value is recorded as “++ (decrease is not less than 20 mm Hg but less than 40 mm Hg)”. The “Cerebral vasodilating activity (potency ratio)” value in data set [4] came to 5.

Consider `COc1ccc([C@@H]2Sc3cc(Cl)ccc3N(CCN(C)C)C(=O)[C@@H]2OC(C)=O)cc1.Cl` (racemic) [(±)-cis-2-(4-methoxyphenyl)-3-acetoxy-5-[2-(dimethylamino)ethyl]-8-chloro-2,3-dihydro-1,5-benzothiazepin-4(5H)-one hydrochloride], for which, in data set [1], the “Hypotensive activity (decrease in blood pressure), 1 hr after dosing” value was “++ (decrease is not less than 20 mm Hg but less than 40 mm Hg)” and the “Hypotensive activity (decrease in blood pressure), 4 hrs after dosing” value is listed as “++++ (decrease is not less than 60 mm Hg)”. The “Coronary vasodilating activity (increase in coronary blood flow)” value in data set [2] is on record as “+++ (increase is not less than 0.5 ml/minute at a dose of not more than 10 μg/heart)”. Besides, in data set [3], the Platelet aggregation-inhibiting activity result is given as “++”.

With `CCN(CC)CCN1C(=O)[C@H](OC(C)=O)[C@H](c2ccc(OC)cc2)Sc2cc(Cl)ccc21.O=C(O)C(=O)O` (single isomer, unassigned) [(+)-cis-2-(4-methoxyphenyl)-3-acetoxy-5-[2-(diethylamino)ethyl]-8-chloro-2,3-dihydro-1,5-benzothiazepin-4(5H)-one oxalate], in data set [3], the Platelet aggregation-inhibiting activity result is reported as “++”.

As for `COc1ccc([C@@H]2Sc3cc(Cl)ccc3N(CCN(C)C)C(=O)[C@@H]2OC(C)=O)cc1.Cl` (single isomer, unassigned) [(+)-cis-2-(4-methoxyphenyl)-3-acetoxy-5-[2-(dimethylamino)ethyl]-8-chloro-2,3-dihydro-1,5-benzothiazepin-4(5H)-one hydrochloride], in data set [4], the “Cerebral vasodilating activity (potency ratio)” value is listed as 25; the “increase in vertebral artery blood flow (in words)” value is listed as “remarkable increase”; the “cerebral vasodilating activity, times stronger than the 7-chloro derivative” value is “about 5 times”. The “Increase in vertebral artery blood flow, 1 minute” value in data set [5] (1 minute after injection) was 58 Δml/minute. In addition, in data set [5] (3 minutes after injection), the “Increase in vertebral artery blood flow, 3 minutes” value is recorded as 53 Δml/minute. Moreover, in data set [5] (5 minutes after injection), the “Increase in vertebral artery blood flow, 5 minutes” value is listed as 52 Δml/minute. Besides, in data set [5] (10 minutes after injection), the “Increase in vertebral artery blood flow, 10 minutes” value is on record as 38 Δml/minute. For the same compound, in data set [5] (20 minutes after injection), the “Increase in vertebral artery blood flow, 20 minutes” value was 21 Δml/minute. In addition, the “Increase in vertebral artery blood flow, 30 minutes” value in data set [5] (30 minutes after injection) is listed as 14 Δml/minute. Further, in data set [2] (Langendorff method, isolated hearts of guinea pigs, versus papaverine), the “coronary vasodilating activity, times stronger than papaverine” value is recorded as “about 10 times”. The “Coronary vasodilating activity (increase in coronary blood flow)” value in data set [2] is “+++ (increase is not less than 0.5 ml/minute at a dose of not more than 10 μg/heart)”. This compound gave an LD50 in data set [6] greater than 1000 mg/kg.

Consider `COc1ccc([C@@H]2Sc3cc(Cl)ccc3N(CCN(C)C)C(=O)[C@@H]2OC(C)=O)cc1.O=C(O)/C=C\C(=O)O` (single isomer, unassigned) [(+)-cis-2-(4-methoxyphenyl)-3-acetoxy-5-[2-(dimethylamino)ethyl]-8-chloro-2,3-dihydro-1,5-benzothiazepin-4(5H)-one maleate], for which, in data set [1], the “Hypotensive activity (decrease in blood pressure), 1 hr after dosing” value was “++++ (decrease is not less than 60 mm Hg)” and the “Hypotensive activity (decrease in blood pressure), 4 hrs after dosing” value is “++++ (decrease is not less than 60 mm Hg)”. The “decrease in blood pressure, 4 hours after administration” value in data set [1] (4 hours) is roughly 68 mm Hg. In addition, the “decrease in blood pressure, one hour after administration” value in data set [1] (one hour) is “about 86 mm Hg”.

On to `COc1ccc([C@@H]2Sc3cc(Cl)ccc3N(CCN(C)C)C(=O)[C@@H]2O)cc1.O=C(O)C(=O)O` (single isomer, unassigned) [(+)-cis-2-(4-methoxyphenyl)-3-hydroxy-5-[2-(dimethylamino)ethyl]-8-chloro-2,3-dihydro-1,5-benzothiazepin-4(5H)-one oxalate], for which, in data set [3], the Platelet aggregation-inhibiting activity result is listed as “++”.

Consider `CCC(=O)O[C@H]1C(=O)N(CCN(C)C)c2ccc(Cl)cc2S[C@H]1c1ccc(OC)cc1.O=C(O)C(=O)O` (single isomer, unassigned) [(+)-cis-2-(4-methoxyphenyl)-3-propionyloxy-5-[2-(dimethylamino)ethyl]-8-chloro-2,3-dihydro-1,5-benzothiazepin-4(5H)-one oxalate], for which, in data set [4], the “Cerebral vasodilating activity (potency ratio)” value was 23.7; the “increase in vertebral artery blood flow (in words)” value is “remarkable increase”; the “cerebral vasodilating activity, times stronger than the 7-chloro derivative” value is reported as “about 5 times”. For the same compound, the Platelet aggregation-inhibiting activity entry in data set [3] was “++”.

Turning to `COc1ccc(Cc2nccc3cc(OC)c(OC)cc23)cc1OC` [Papaverine, reference compound], the “Coronary vasodilating activity (increase in coronary blood flow)” value in data set [2] is listed as “+ (increase is not less than 0.5 ml/minute at a dose of 100 μg/heart)”.
